± gives the standard deviation of the averaged measurements.
How the values were obtained:
Test in all cases: level (log10 ratio to DMSO vehicle control); higher = higher biomarker level / cell amount than vehicle control
Perfluorononanoic acid = compound: O=C(O)C(F)(F)C(F)(F)C(F)(F)C(F)(F)C(F)(F)C(F)(F)C(F)(F)C(F)(F)F [Perfluorononanoic acid] (in DMSO)
Procedure: (§1)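 BioMAP Diversity Plus panel of 12 human primary cell co-culture systems (3C, 4H, LPS, SAg, BT, BF4T, BE3C, CASM3C, HDF3CGF, KF3CT, MyoF, Mphg). Compounds were added 1 h before stimulation and left for 24 h (MyoF 48 h; BT 72 h for soluble read-outs or 6 d for IgG). Biomarkers were read by ELISA, cytotoxicity by SRB, PBMC viability and proliferation by Alamar Blue. Each well value was divided by the mean of 8 DMSO control wells on the same plate and log10 transformed; duplicate blinded samples were tested at 4 concentrations.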

[1] = compound: NS(=O)(=O)C(F)(F)C(F)(F)C(F)(F)C(F)(F)C(F)(F)C(F)(F)C(F)(F)C(F)(F)F [Perfluorooctanesulfonamide] (in DMSO)
Procedure: as §1

[2] = compound: O=S(=O)(O)C(F)(F)C(F)(F)OC(F)(F)C(F)(F)F [Perfluoro(2-ethoxyethane)sulfonic acid] (in DMSO)
Procedure: as §1

[3] = compound: C=C(C)C(=O)OCCC(F)(F)C(F)(F)C(F)(F)C(F)(F)C(F)(F)C(F)(F)C(F)(F)C(F)(F)F [8:2 Fluorotelomer methacrylate] (in DMSO)
Procedure: as §1

[4] = compound: CO[Si](C)(CCC(F)(F)C(F)(F)C(F)(F)C(F)(F)C(F)(F)C(F)(F)F)OC [Dimethoxymethyl((perfluorohexyl)ethyl)silane] (in DMSO)
Procedure: as §1

[5] = compound: O=C(O)C(F)(F)OC(F)(F)C(F)(F)OC(F)(F)C(F)(F)OC(F)(F)C(F)(F)C(F)(F)C(F)(F)F [Perfluoro-3,6,9-trioxatridecanoic acid] (in DMSO); settings: 6700 nM
Procedure: as §1

[6] = compound: O=C(O)C(F)(OC(F)(F)C(F)(F)C(F)(F)F)C(F)(F)F [Ammonium perfluoro-2-methyl-3-oxahexanoate] (in Water)
Procedure: as §1

[7] = compound: OCC(F)(F)C(F)(F)C(F)(F)C(F)F [1H,1H,5H-Perfluoropentanol] (in DMSO)
Procedure: as §1

Test System	level (log10) (Perfluorononanoic acid; 6700 nM)	level (log10) (Perfluorononanoic acid; 20000 nM)	level (log10) ([1]; 6700 nM)	level (log10) ([1]; 20000 nM)	level (log10) ([2]; 6700 nM)	level (log10) ([2]; 20000 nM)	level (log10) ([2]; 60000 nM)	level (log10) ([3]; 6700 nM)	level (log10) ([3]; 20000 nM)	level (log10) ([4]; 6700 nM)	level (log10) ([4]; 20000 nM)	level (log10) [5]	level (log10) ([6]; 6700 nM)	level (log10) ([6]; 20000 nM)	level (log10) ([6]; 60000 nM)	level (log10) ([7]; 6700 nM)	level (log10) ([7]; 20000 nM)	level (log10) ([7]; 60000 nM)
3C:CCL2/MCP-1	-0.014 ± 0.038	-0.0045 ± 0.016	-0.0015 ± 0.0021	0.085 ± 0.0057	-0.022 ± 0.03	-0.014 ± 0.014	-0.0095 ± 0.019	0.0115 ± 0.012	0.009 ± 0.0014	-0.0005 ± 0.0021	0.012 ± 0.0042	0.0155 ± 0.021	-0.003 ± 0.0085	-0.004 ± 0.016	0.056 ± 0.05	-0.0055 ± 0.015	0.03 ± 0.024	0.042 ± 0.045
3C:CD54/ICAM-1	-0.028 ± 0.0014	-0.023 ± 0.0099	-0.0005 ± 0.005	0.002 ± 0.011	-0.0105 ± 0.028	-0.0095 ± 0.023	-0.01 ± 0.024	-0.0125 ± 0.016	-0.0095 ± 0.025	-0.008 ± 0.0085	0.0265 ± 0.016	0.0005 ± 0.021	-0.0255 ± 0.0092	0.0065 ± 0.00071	0.0055 ± 0.011	-0.028 ± 0.0085	-0.003 ± 0.0099	0.0125 ± 0.023
3C:CD62E/E-Selectin	-0.0195 ± 0.0078	-0.013 ± 0.013	-0.006 ± 0.02	0.043 ± 0.011	0.0125 ± 0.012	0	0.0125 ± 0.0064	-0.024 ± 0.0085	-0.0225 ± 0.005	-0.023 ± 0.0042	-0.0235 ± 0.005	-0.0355 ± 0.0092	0.0025 ± 0.005	0.0105 ± 0.011	0.011 ± 0.011	-0.018 ± 0.018	-0.015	0.008 ± 0.0014
3C:CD106/VCAM-1	-0.0205 ± 0.016	-0.0195 ± 0.023	-0.0005 ± 0.012	0.003 ± 0.013	0.008 ± 0.033	0.002 ± 0.0071	0 ± 0.0085	-0.0205 ± 0.019	-0.0445 ± 0.015	-0.0115 ± 0.035	-0.009 ± 0.024	-0.0335 ± 0.023	-0.0065 ± 0.0035	-0.0245 ± 0.0035	-0.0155 ± 0.00071	-0.0245 ± 0.0078	-0.012	0.0075 ± 0.0035
3C:CD141/Thrombomodulin	-0.0225 ± 0.00071	-0.0285 ± 0.011	0.018 ± 0.0099	0.107 ± 0.0014	0.0085 ± 0.018	-0.0145 ± 0.036	-0.023 ± 0.0028	-0.031 ± 0.055	-0.033 ± 0.02	-0.0035 ± 0.0021	-0.0275 ± 0.025	-0.0155 ± 0.0021	-0.0395 ± 0.03	-0.0315 ± 0.011	-0.057 ± 0.0028	-0.006 ± 0.011	-0.013 ± 0.013	0.0195 ± 0.011
3C:CD142/Tissue Factor	-0.0555 ± 0.0021	-0.0455 ± 0.032	-0.05 ± 0.017	-0.033 ± 0.031	0.013 ± 0.0057	-0.001 ± 0.024	0.017 ± 0.0042	0.0445 ± 0.047	0.0595 ± 0.022	0.015 ± 0.02	0.021 ± 0.033	-0.0085 ± 0.03	0.0735 ± 0.012	0.0805 ± 0.0078	0.0805 ± 0.00071	-0.0095 ± 0.00071	-0.014 ± 0.025	0.021 ± 0.0085
BE3C:Keratin 8/18	-0.0335 ± 0.04	-0.0365 ± 0.032	-0.0475 ± 0.013	-0.0185 ± 0.0021	-0.007 ± 0.013	-0.0105 ± 0.013	-0.01 ± 0.011	-0.0195 ± 0.037	-0.008 ± 0.071	0.0155 ± 0.011	0.0075 ± 0.005	-0.293 ± 0.032	-0.042 ± 0.0042	-0.019 ± 0.024	-0.0165 ± 0.0092	-0.0225 ± 0.011	0.0135 ± 0.005	0.0035 ± 0.025
BE3C:MMP-1	0.05 ± 0.059	0.221 ± 0.035	0.084 ± 0.021	0.154 ± 0.014	-0.001 ± 0.0071	0.0055 ± 0.018	0.108 ± 0.069	0.0135 ± 0.012	-0.003 ± 0.0057	-0.0085 ± 0.03	0.034 ± 0.033	-0.471 ± 0.023	0.0325 ± 0.032	0.062 ± 0.038	0.136 ± 0.013	-0.014 ± 0.011	0.029 ± 0.024	0.023 ± 0.03
BE3C:MMP-9	-0.0075 ± 0.00071	0.0055 ± 0.011	-0.101 ± 0.016	-0.131 ± 0.0014	-0.0015 ± 0.00071	-0.0005 ± 0.015	0.0265 ± 0.012	-0.0125 ± 0.06	-0.024 ± 0.085	-0.006 ± 0.0042	-0.017 ± 0.013	-0.4295 ± 0.0021	-0.109 ± 0.051	-0.09 ± 0.03	-0.063 ± 0.035	-0.009 ± 0.016	0.0235 ± 0.018	0.0175 ± 0.022
BE3C:PAI-I	-0.013 ± 0.042	-0.101 ± 0.019	-0.194 ± 0.03	-0.202 ± 0.016	-0.011 ± 0.023	0.0015 ± 0.021	0.032 ± 0.014	0.001 ± 0.041	-0.013 ± 0.076	0.009 ± 0.033	-0.0245 ± 0.023	-0.526 ± 0.018	-0.0995 ± 0.057	-0.092 ± 0.044	-0.124 ± 0.012	-0.043 ± 0.021	0.023 ± 0.048	0.0495 ± 0.047
BE3C:SRB	-0.0015 ± 0.005	-0.04 ± 0.0028	-0.0145 ± 0.0021	-0.0315 ± 0.00071	-0.001 ± 0.0042	0 ± 0.0014	0.0055 ± 0.018	-0.003	0.0025 ± 0.005	-0.0035 ± 0.0035	-0.003 ± 0.0042	-0.231 ± 0.012	-0.003 ± 0.0042	0 ± 0.0014	0.003 ± 0.0099	0 ± 0.0014	0.0025 ± 0.0092	0.007 ± 0.011
BE3C:tPA	-0.012 ± 0.0042	-0.172 ± 0.023	0.0025 ± 0.035	-0.058 ± 0.055	-0.004 ± 0.034	-0.053 ± 0.013	0.0595 ± 0.013	-0.0125 ± 0.067	-0.036 ± 0.082	0.0005 ± 0.026	-0.026 ± 0.037	-0.452 ± 0.005	-0.101 ± 0.047	-0.0935 ± 0.021	-0.0945 ± 0.021	-0.019 ± 0.0042	-0.022 ± 0.017	-0.0035 ± 0.011
BE3C:uPA	-0.0445 ± 0.08	-0.0195 ± 0.076	-0.0065 ± 0.013	0.0145 ± 0.0064	-0.0015 ± 0.022	-0.0145 ± 0.039	-0.004 ± 0.023	-0.0145 ± 0.012	-0.0145 ± 0.059	0.0115 ± 0.011	-0.0055 ± 0.013	-0.349 ± 0.005	0.033 ± 0.027	0.0315 ± 0.016	0.0245 ± 0.012	-0.0105 ± 0.016	0.001 ± 0.011	0.002 ± 0.041
CASM3C:CCL2/MCP-1	-0.0295 ± 0.049	-0.0085 ± 0.054	0.01 ± 0.013	0.01 ± 0.023	-0.003 ± 0.024	-0.013 ± 0.0071	-0.0115 ± 0.036	-0.011 ± 0.0099	0.0025 ± 0.037	-0.013	0.02 ± 0.016	-0.0045 ± 0.023	-0.0235 ± 0.021	-0.034 ± 0.035	-0.013 ± 0.013	-0.0115 ± 0.012	-0.0105 ± 0.013	-0.0015 ± 0.011

— the supplement of paper PMC10331698
